Article PMC10031046, “Competition between FLS and DFR regulates the distribution of flavonols and proanthocyanidins in Rubus chingii Hu” (Frontiers in Plant Science, 2023)

Columns and labels:
RcFLS1 = tested on: T1, RcFLS1; test: HPLC product assay, Michaelis-Menten fit; assay type: biochemical, Rubus chingii; conditions: 100 mM Tris-HCl pH 7.5, 10 mM ascorbate, 10 μM FeSO4, 10 mM 2-oxoglutarate, catalase, 30 °C; kcat unit is 10^-3 s^-1
T1 construct: gene FLS1; N-terminal MBP fusion (pMAL-c2X), E. coli BL21(DE3), amylose resin
Description: HPLC product assay, Michaelis-Menten fit on RcFLS1

RcDFR = tested on: T2, RcDFR; test: anthocyanidin formation after butanol-HCl, A530, Michaelis-Menten fit; assay type: biochemical, Rubus chingii; conditions: 1 mM NADPH, 0.1 M PBS pH 7.0, 30 °C, 1 h; kcat unit is 10^-3 s^-1
T2 construct: gene DFR; N-terminal MBP fusion (pMAL-c2X), E. coli BL21(DE3), amylose resin
Description: anthocyanidin formation after butanol-HCl, A530, Michaelis-Menten fit on RcDFR

In the case of `O=C1c2c(O)cc(O)cc2O[C@H](c2ccc(O)cc2)[C@H]1O` [DHK, Dihydrokaempferol], the Km (RcFLS1) is reported as 33.9 ± 8.66 µM and the Km (RcDFR) is reported as 47.2 ± 5.79 µM.
Work on `O=C1c2c(O)cc(O)cc2O[C@H](c2ccc(O)c(O)c2)[C@H]1O` [DHQ, Dihydroquercetin] yielded a Km (RcFLS1) of 56.9 ± 16.4 µM and a Km (RcDFR) of 125 ± 11.4 µM.
For `O=C1C[C@@H](c2ccc(O)c(O)c2)Oc2cc(O)cc(O)c21` [E, Eriodictyol], the Km (RcFLS1) was 34.5 ± 9.34 µM.
For `O=C1C[C@@H](c2ccc(O)cc2)Oc2cc(O)cc(O)c21` [N, Naringenin], the Km (RcFLS1) was 43.6 ± 14.6 µM.
